Patent US20250019398A1, “NONAMERIC PEPTIDE HAVING EXCELLENT ANTIBACTERIAL ACTIVITY AGAINST GRAM-NEGATIVE BACTERIA AND ENANTIOMER THEREOF” (priority 2021, published 2025)
In brackets after ≈: the same amount, converted by molar mass. Entries after “also recorded” stand apart in the source; their conditions may differ. Like-named read-outs stand apart in the source and are kept apart here. Square brackets hold non-standard residues; d marks the D form. Ends that are not written are not given here. Peptide text beside a SMILES is read from it.

Columns and labels:
[1] = test system: carbapenem-resistant E. coli NCCP16044 (CREC 16044); test: microbe, parasite or virus in culture; format: cell-based; conditions: 16 hours, read-out: Minimal inhibitory concentration (MIC), CREC 16044
Text: (§1) Among the bacterial strains used in the experiment, Escherichia coli KCTC 1682 was obtained from the Korean Collection for Type Cultures (KCTC) (Jeongeup, Korea), Acinetobacter baumannii KCCM 40203 and Pseudomonas aeruginosa KCCM 11328 were obtained from the Korean Culture Center of Microorganisms (KCCM) (Seoul, Korea), and Klebsiella pneumonia NCCP 16054 was obtained from the National Culture Collection for Pathogens (NCCP) (Osong, Korea). In addition, carbapenem-resistant E. coli NCCP16044 and carbapenem-resistant Klebsiella pneumonia NCCP 15782 were obtained from the NCCP, and three types of carbapenem-resistant A. baumanii CCARM 12004-6 were obtained from the Culture Collection of Antimicrobial Resistance Microbes (CCARM) (Cheongju City, Korea). The E. coli K1 (ATCC700973) strain used in the animal experiments was obtained from the American Type Culture Collection (ATCC) ([…]).
(§2) The antimicrobial activities of the peptides were measured by a minimal inhibitory concentration (MIC) analysis. The MIC was determined using a broth dilution method. All bacterial strains were grown overnight at 37° C. in a Muller-Hinton (MH) medium.

[2] = test system: carbapenem-resistant Klebsiella pneumonia NCCP 15782 (CRKP 15782); test: MIC, broth dilution; format: cell-based; conditions: 16 hours
Text: as §1, §2

[3] = test system: Klebsiella pneumonia NCCP 16054; test: MIC, broth dilution; format: cell-based; conditions: standard Gram-negative bacteria, 16 hours
Text: as §1, §2

[4] = test system: sheep red blood cells (sRBCs); test: Hemolysis of sheep red blood cells; format: cell-based; conditions: for Hemolysis of sRBCs: 100 μM, 1 h
Procedure: Peptide-induced toxicity was determined by hemolysis of sheep red blood cells (sRBCs). Fresh sRBCs were washed three times or more with phosphate buffered saline (PBS), and debris was removed by centrifugation (1000×g, 5 minutes, 4° C.). All the peptides including a melittin control (0.2 to 100 μM) and a positive control (1% (v/v) Triton X-100) were cultured with 4% (v/v) sRBCs at 37° C. for 1 h, and then centrifuged at 1000×g for 5 minutes. The supernatant was measured at 405 nm using a microplate reader.

[5] = test system: CRAB 12004 (carbapenem-resistant A. baumanii CCARM); test: MIC, broth dilution; format: cell-based, A. baumannii; conditions: 16 hours, read-out: Minimal inhibitory concentration (MIC), CRAB 12004
Text: as §1, §2

[6] = test system: CRAB 12006 (carbapenem-resistant A. baumanii CCARM); test: MIC, broth dilution; format: cell-based, A. baumannii; conditions: 16 hours, read-out: Minimal inhibitory concentration (MIC), CRAB 12006
Text: as §1, §2

[7] = test system: CRAB 12005 (carbapenem-resistant A. baumanii CCARM); test: MIC, broth dilution; format: cell-based, A. baumannii; conditions: 16 hours, read-out: Minimal inhibitory concentration (MIC), CRAB 12005
Text: as §1, §2

E. coli = format: cell-based; conditions: 37° C.; for MIC, E. coli + Trypsin: peptide pre-cultured with trypsin 6 hours; for MIC, E. coli + α-Chymotrypsin: peptide pre-cultured with α-chymotrypsin 6 hours
Procedure: (§3) Proteolysis of peptides in serum has limited clinical use due to decreased bioavailability and half-life. Therefore, the stability of all the peptides pre-exposed to trypsin and chymotrypsin proteases was investigated and the relative growth inhibition of E. coli and A. baumannii was determined (Table 3). […] Thereafter, 100 μL of a peptide-protease mixture was added to 100 μL of a bacterial suspension (E. coli, A. baumannii, 2×10^5 CFU/mL), and the resulting mixture was further cultured at 37°° C. for 16 hours. A bacterial suspension without a peptide and protease was employed as a negative control. An analysis was performed in triplicates through independent experiments, and the degree of bacterial growth was measured at 600 nm using a microplate reader.

A. baumannii = format: cell-based; conditions: 37° C.; for MIC, A. baumannii + Trypsin: peptide pre-cultured with trypsin 6 hours; for MIC, A. baumannii + α-Chymotrypsin: peptide pre-cultured with α-chymotrypsin 6 hours
Procedure: as §3

[8] = test system: RAW 264.7 mouse macrophages; test: WST-8 cytotoxicity; format: cell-based; conditions: 100 μM, 24 hours
Procedure: (§4) Additionally, for a cell-based toxicity assay, RAW 264.7 mouse macrophages and human kidney (HK)-2 cells were obtained from the Korean Cell Line Bank (Seoul, Korea), and cells were maintained in a DMEM culture medium (Thermo Fischer Scientific Inc., MA, USA) supplemented with 10% fetal bovine serum and 1% penicillin/streptomycin at 37° C. in a humidified 5% CO2 incubator. The cytotoxicity of the peptides was analyzed using a WST-8 cell proliferation assay (Biomax Co, Ltd, Seoul, South Korea), and the experiment was performed according to the kit protocol. Cells (1×10^4) were seeded in a 96-well plate, the peptide treatment (0 to 100 μM) were initiated at 80% confluency and then the cells were cultured for 24 hours. After culturing, a WST-8 reagent was added and the change in absorbance was read at 450 nm relative to the reagent blank, and values were expressed as percent cell survival.

[9] = test system: human kidney (HK)-2 cells; test: WST-8 cytotoxicity; format: cell-based; conditions: 100 μM, 24 hours
Procedure: as §4

[10] = test system: Escherichia coli KCTC 1682; test: MIC, broth dilution; format: cell-based; conditions: standard Gram-negative bacteria, 16 hours; read-out: Minimal inhibitory concentration (MIC), E. coli
Text: In addition, carbapenem-resistant E. coli NCCP16044 and carbapenem-resistant Klebsiella pneumonia NCCP 15782 were obtained from the NCCP, and three types of carbapenem-resistant A. baumanii CCARM 12004-6 were obtained from the Culture Collection of Antimicrobial Resistance Microbes (CCARM) (Cheongju City, Korea). The E. coli K1 (ATCC700973) strain used in the animal experiments was obtained from the American Type Culture Collection (ATCC) ([…]).
as §2

[11] = test system: Acinetobacter baumannii KCCM 40203; test: MIC, broth dilution; format: cell-based; conditions: standard Gram-negative bacteria, 16 hours
Text: as §1, §2

[12] = test system: Pseudomonas aeruginosa KCCM 11328; test: MIC, broth dilution; format: cell-based; conditions: standard Gram-negative bacteria, 16 hours
Text: as §1, §2

[13] = In vivo toxicity (serum AST, ALT, BUN); design: species or system ICR mice; conditions: 1 mg/kg and 5 mg/kg i.p., 24 hours
Procedure: For in vivo toxicity measurements, ICR mice (n=5 per group) were injected intraperitoneally (i.p.) with R-Pro9-3D (1 mg and 5 mg/kg/day in PBS), and serum levels of aspartate aminotransferase (AST) and alanine aminotransferase (ALT) in the liver and BUN (blood urea nitrogen) in the kidney were measured using a standard kit manufactured by ASAN PHARM. Co., LTD.

LPS = test: LAL chromogenic endotoxin assay (LPS neutralization); format: biochemical; conditions: LPS 2 ng/mL; peptide concentration of the values not stated (3.1-50 μM tested)
Procedure: Peptide-mediated LPS-neutralizing activity was determined using a Limulus amebocyte lysate (LAL) chromogenic endotoxin quantification kit (GenScript, New Jersey, USA). 3.1, 6.3, 10, 12.5, 25, and 50 μM of each peptide were allowed to react so as to interact with LPS (2 ng/mL) at 37° C. for 10 minutes. LL-37, which is known to have high LPS-neutralizing ability, was used as a control. After an LAL enzyme (10 μL) was added to the peptide-LPS complex and the resulting mixture was allowed to react for 10 minutes, a chromogenic substrate was added thereto. An endotoxin level was shown by measuring the absorbance at 545 nm in triplicate and expressed in endotoxin units (EUs) per milliliter.

LPS (E. coli O111:B4) = test: BODIPY-TR cadaverine displacement assay (LPS binding); conditions: 4 μM, 30 minutes
Procedure: The binding ability of peptides to LPS was investigated by BODIPY-TR cadaverine (BC, Thermo Fisher Scientific, MA, USA) displacement assay (FIG. 2A). A probe complex was prepared by mixing 5 μg/mL BC and 5 μg/mL LPS (E. coli O111:B4, Sigma-Aldrich, St. Louis, MO, USA) in a 50 mM Tris buffer (pH 7.4) at room temperature for 6 hours. Peptides containing a polymyxin B (PMB) control (1 to 64 μM), which is known to have high LPS binding ability, were allowed to interact with the LPS-BC mixture in a black 96-well plate for 30 minutes. Relative fluorescence intensities were recorded using a fluorescence microplate reader (Molecular Devices, San Jose, USA) at an excitation wavelength of 580 nm and an emission wavelength of 620 nm.

[14] = sheep red blood cells, 200 μM used when no detectable hemolysis at 100 μM

Molecule	MIC [1]	Minimal inhibitory concentration (MIC), CRKP 15782 [2]	Minimal inhibitory concentration (MIC), K. pneumonia [3]	MIC [5]	MIC [6]	MIC [7]	Toxicity in RAW264.7 cells [8]	Toxicity in human kidney (HK)-2 cells [9]	other results
CC[C@@H](C)[C@@H](NC(=O)[C@@H](C)NC(=O)[C@@H](CC(C)C)NC(=O)[C@@H](Cc1c[nH]c2ccccc12)NC(=O)[C@@H](CC(C)C)NC(=O)[C@H](N)CCCNC(=N)N)C(=O)N[C@H](Cc1c[nH]c2ccccc12)C(=O)N[C@H](CCCNC(=N)N)C(=O)N[C@H](CCCNC(=N)N)C(N)=O [Pro9-3D, rlwlaiwrr-NH2] (H-[dR][dL][dW][dL][dA][dI][dW][dR][dR]-NH2)	8 µM (≈ 10.1 µg/mL)	8 µM (≈ 10.1 µg/mL)	8 µM (≈ 10.1 µg/mL)	8 µM (≈ 10.1 µg/mL)	8 µM (≈ 10.1 µg/mL)	8 µM (≈ 10.1 µg/mL)			HC10 (peptide concentration that induces 10% hemolysis) ([4]; red cells of sheep): 200 µM
CC[C@@H](C)[C@@H](NC(=O)[C@@H](Cc1c[nH]c2ccccc12)NC(=O)[C@@H](CCCNC(=N)N)NC(=O)[C@H](N)CCCNC(=N)N)C(=O)N[C@H](C)C(=O)N[C@H](CC(C)C)C(=O)N[C@H](Cc1c[nH]c2ccccc12)C(=O)N[C@H](CC(C)C)C(=O)N[C@H](CCCNC(=N)N)C(N)=O [R-Pro9-3D, rrwialwlr-NH2] (H-[dR][dR][dW][dI][dA][dL][dW][dL][dR]-NH2)	4 µM (≈ 5.07 µg/mL)	8 µM (≈ 10.1 µg/mL)	8 µM (≈ 10.1 µg/mL)	4 µM (≈ 5.07 µg/mL)	4 µM (≈ 5.07 µg/mL)	4 µM (≈ 5.07 µg/mL)	20.3%	9.6%	MIC, E. coli + Trypsin (E. coli): 8 µM; MIC, E. coli + α-Chymotrypsin (E. coli): 8 µM; MIC, A. baumannii + Trypsin (A. baumannii): 4 µM; MIC, A. baumannii + α-Chymotrypsin (A. baumannii): 4 µM; MIC [10]: 8 µM (≈ 10.1 µg/mL); Minimal inhibitory concentration (MIC), A. baumannii [11]: 4 µM (≈ 5.07 µg/mL); Minimal inhibitory concentration (MIC), P. aeruginosa [12]: 8 µM (≈ 10.1 µg/mL); Serum AST, ALT and BUN levels (in vivo toxicity) [13]: no clinically significant levels; also recorded: did not increase the above enzyme levels; Hemolysis of sRBCs [4]: 1.2%; HC10 (peptide concentration that induces 10% hemolysis) [4, 14]: 200 µM
LL-37									LPS neutralization (LPS): 76.5%
RLWLAIWRR-NH2 [Pro9-3]	16 µM	64 µM	64 µM	16 µM	16 µM	16 µM	neither R-Pro9-3 nor Pro9-3 showed toxicity; also recorded: non-toxic	neither R-Pro9-3 nor Pro9-3 showed toxicity; also recorded: non-toxic	HC10 (peptide concentration that induces 10% hemolysis) ([4]; red cells of sheep): 200 µM
polymyxin B [PMB]									BC displacement (LPS binding) (LPS (E. coli O111:B4)): 76.6%
C[C@@H](O)[C@H]1C(=O)N2C(C(=O)O)=C(SCCN=CN)C[C@H]12 [Imipenem]									MIC ([1]; Escherichia coli): 8 µM (≈ 2.39 µg/mL); MIC ([5]; Acinetobacter baumannii): 64 µM (≈ 19.2 µg/mL); MIC ([6]; Acinetobacter baumannii): 64 µM (≈ 19.2 µg/mL); MIC ([7]; Acinetobacter baumannii): 64 µM (≈ 19.2 µg/mL)
RRWIALWLR-NH2 [R-Pro9-3]	16 µM	16 µM	32 µM	32 µM	16 µM	16 µM	neither R-Pro9-3 nor Pro9-3 showed toxicity; also recorded: non-toxic	neither R-Pro9-3 nor Pro9-3 showed toxicity; also recorded: non-toxic	MIC, E. coli + Trypsin (E. coli): >64 µM; MIC, E. coli + α-Chymotrypsin (E. coli): 64 µM; MIC, A. baumannii + Trypsin (A. baumannii): >64 µM; MIC, A. baumannii + α-Chymotrypsin (A. baumannii): >64 µM; MIC [10]: 16 µM; Minimal inhibitory concentration (MIC), A. baumannii [11]: 16 µM; Minimal inhibitory concentration (MIC), P. aeruginosa [12]: 64 µM; Hemolysis of sRBCs [4]: 3.4%; HC10 (peptide concentration that induces 10% hemolysis) [4, 14]: 200 µM
